From patent publication US10335363B2, “Skin care composition and method of making the same” (The Procter & Gamble Company, priority 2015, dated 2019) come the findings set out here.

The series deals with interleukin-18 (IL-18). Description: Skin sensitization potential (IL-18 production in HEK). The format is cell-based, human. Particulars: fold change of IL-18 vs vehicle control, HEK lysates, 16 hours. The source says:
It is possible for a material to not be cytotoxic, and yet be unsafe due to provoking an allergic reaction upon skin contact. Typically, initial exposure to an allergen sensitizes the immune system, and following exposures cause an allergic response. Recent progress in understanding the mechanisms of skin sensitization identified interleukin-18 (IL-18) production in normal human epidermal keratinocytes (HEK) as a useful biomarker for skin contact sensitization (Corsini, et al., “Use of IL-18 Production In a Human Keratinocyte Cell Line to Discriminate Contact Sensitizers from Irritants and Low Molecular Weight Respiratory Allergens.” Toxicol In Vitro. 2009 August; 23(5):789-96; Teunis, et al., “Transfer of a Two-tiered Keratinocyte Assay: IL-18 Production by NCTC2544 to Determine the Skin Sensitizing Capacity and Epidermal Equivalent Assay to Determine Sensitizer Potency.” Toxicol In Vitro. 2013 April; 27(3):1135-50). […] Thus, IL-18 production in HEK was evaluated to determine sensitization potential.
Normal human adult epidermal keratinocytes (HEK) were cultured as described above for the cytoxicity evaluation. […] The cell lysates were collected, and IL-18 was quantified using Human IL-18 ELISA Kit (Catalog #7620, produced by MBL International Co., Woburn, Mass., USA). […] Fold changes of IL-18 levels between test articles and respective vehicle controls were calculated and compared to pPD. […]

The structures appear in SMILES notation.

With `Nc1ccc(N)cc1` [benchmark sensitizer, para-phenylenediamine], the “IL18 Maximum fold” value is listed as 7.8 fold).
